According to PubChem BioAssay AID192 (DTP/NCI, 2004):
Several values for one entry are separate records, joined by “and”; a condition that tells them apart may be missing. Equal values may be shown once. Toxic doses and inconclusive results are not listed. Square brackets hold non-standard residues; d marks the D form. Peptide text beside a SMILES is read from it. ξ: configuration not given here. ξLac(3-iPr) = CC(C)CC(O)C(=O)O; NMeV = CN[CH](C(=O)O)C(C)C; NMeA = CN[CH](C)C(=O)O; βAla = NCCC(=O)O

System: BDF1 mice, B16 melanoma ip, median survival T/C
Test: NCI In Vivo Anticancer Drug Screen. Data for tumor model B16 Melanoma (intraperitoneal) in B6D2F1 (BDF1) mice
Conditions: endpoint: median survival time, higher = longer survival
How it was run: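 The ratio T/C compares compound-treated mice with vehicle-treated controls, using survival or tumor size as the endpoint in a transplantable tumor model.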

[1] = dose: 50.0 mg/kg/injection, schedule: Q01DX009 (ip), vehicle: saline
[2] = dose: 100.0 mg/kg/injection, schedule: Q01DX009 (ip), vehicle: saline
[3] = dose: 200.0 mg/kg/injection, schedule: Q01DX009 (ip), vehicle: saline
[4] = dose: 400.0 mg/kg/injection, schedule: Q01DX009 (ip), vehicle: saline
[5] = dose: 25.0 mg/kg/injection, schedule: Q01DX009 (ip), vehicle: saline
[6] = dose: 100.0 mg/kg/injection, schedule: Q04DX003 (ip), vehicle: saline with Tween-80
[7] = dose: 200.0 mg/kg/injection, schedule: Q04DX003 (ip), vehicle: saline with Tween-80
[8] = dose: 400.0 mg/kg/injection, schedule: Q04DX003 (ip), vehicle: saline with Tween-80
[9] = dose: 50.0 mg/kg/injection, schedule: Q01DX009 (ip), vehicle: saline with Tween-80
[10] = dose: 50.0 mg/kg/injection, schedule: Q04DX003 (ip), vehicle: saline with Tween-80
[11] = dose: 100.0 mg/kg/injection, schedule: Q01DX009 (ip), vehicle: saline with Tween-80
[12] = dose: 200.0 mg/kg/injection, schedule: Q01DX009 (ip), vehicle: saline with Tween-80
[13] = dose: 12.5 mg/kg/injection, schedule: Q01DX009 (ip), vehicle: Klucel (hydroxypropylcellulose) (HPC)
[14] = dose: 100.0 mg/kg/injection, schedule: Q01DX009 (ip), vehicle: Klucel (hydroxypropylcellulose) (HPC)
[15] = dose: 50.0 mg/kg/injection, schedule: Q01DX009 (ip), vehicle: Klucel (hydroxypropylcellulose) (HPC)
[16] = dose: 25.0 mg/kg/injection, schedule: Q01DX009 (ip), vehicle: Klucel (hydroxypropylcellulose) (HPC)
[17] = dose: 25.0 mg/kg/injection, schedule: Q04DX003 (ip), vehicle: saline with Tween-80
[18] = dose: 12.5 mg/kg/injection, schedule: Q01DX009 (ip), vehicle: saline with Tween-80
[19] = dose: 25.0 mg/kg/injection, schedule: Q01DX009 (ip), vehicle: saline with Tween-80

O=C(CCl)N1c2ccccc2Oc2cc3ccccc3cc21
T/C [1]: 113 % of control
T/C [2]: 106 % of control
T/C [3]: 104 % of control
T/C [4]: 109 % of control

N#CO
T/C (dose: 18.7 mg/kg/injection, schedule: Q01DX009 (ip), vehicle: saline): 100 % of control
T/C (dose: 37.5 mg/kg/injection, schedule: Q01DX009 (ip), vehicle: saline): 105 % of control
T/C (dose: 75.0 mg/kg/injection, schedule: Q01DX009 (ip), vehicle: saline): 105 % of control

CCCCNCCN(CC)CC
T/C [5]: 100 % of control
T/C [1]: 100 % of control
T/C [2]: 98 % of control

COc1ccc2c(c1)C(=O)CC=C(C(=O)O)N2
T/C [2]: 100 % of control
T/C [6]: 88 % of control
T/C [3]: 96 % of control
T/C [7]: 93 % of control
T/C [4]: 98 % of control
T/C [8]: 95 % of control

CCC(C)C1NC(=O)C2CCCN2C(=O)C(CC(C)C)OC(=O)CCNC(=O)C(C)N(C)C(=O)C(C(C)C)N(C)C1=O (stereo not given) (cyclo([ξLac(3-iPr)]PI[NMeV][NMeA][βAla]); configuration not given here)
T/C (dose: 1.25 mg/kg/injection, schedule: Q01DX009 (ip), vehicle: saline): 112 % of control
T/C (dose: 2.5 mg/kg/injection, schedule: Q01DX009 (ip), vehicle: saline): 111 % of control
T/C (dose: 5.0 mg/kg/injection, schedule: Q01DX009 (ip), vehicle: saline): 105 % of control
T/C (dose: 10.0 mg/kg/injection, schedule: Q01DX009 (ip), vehicle: saline): 107 % of control

CCOC(=O)C(=CN(C(C)C)C(C)C)C(=O)OCC
T/C [9]: 117 % of control
T/C [10]: 108 % of control
T/C [11]: 111 % of control
T/C [6]: 108 % of control
T/C [7]: 108 % of control

c1cc[c]([Sn]([S][Sn]([c]2ccccc2)([c]2ccccc2)[c]2ccccc2)([c]2ccccc2)[c]2ccccc2)cc1
T/C [9]: 99 % of control
T/C [11]: 93 % of control
T/C [12]: 92 % of control
T/C (dose: 400.0 mg/kg/injection, schedule: Q01DX009 (ip), vehicle: saline with Tween-80): 86 % of control

O=S1(=O)CC(Cl)C(Cl)C1 (stereo not given)
T/C (dose: 3.12 mg/kg/injection, schedule: Q01DX009 (ip), vehicle: Klucel (hydroxypropylcellulose) (HPC)): 91 % of control
T/C [13]: 96 % of control

CC(=O)OC1C(C)OC(OC(=O)C2CCC3C(C2)OC2(CC(OC(=O)/C=C/c4ccccc4)C(C)CO2)C32CO2)C(OC2OC(C)C(O)C(OC(C)=O)C2O)C1O (stereo not given)
T/C (dose: 6.0 mg/kg/injection, schedule: Q01DX009 (ip), vehicle: saline + alcohol): 152 % of control
T/C (dose: 12.0 mg/kg/injection, schedule: Q01DX009 (ip), vehicle: saline + alcohol): 186 % of control
T/C (dose: 24.0 mg/kg/injection, schedule: Q01DX009 (ip), vehicle: saline + alcohol): 205 % of control
T/C (dose: 48.0 mg/kg/injection, schedule: Q01DX009 (ip), vehicle: saline + alcohol): 193 % of control

NCC(=O)Nc1ccc(O)cc1
T/C (dose: 150.0 mg/kg/injection, schedule: Q01DX009 (ip), vehicle: saline): 94 % of control
T/C (dose: 300.0 mg/kg/injection, schedule: Q01DX009 (ip), vehicle: saline): 105 % of control

Cn1cnc2c1c(=O)[nH]c(=O)n2C
T/C [14]: 109 % of control
T/C (dose: 200.0 mg/kg/injection, schedule: Q01DX009 (ip), vehicle: Klucel (hydroxypropylcellulose) (HPC)): 111 % of control
T/C (dose: 400.0 mg/kg/injection, schedule: Q01DX009 (ip), vehicle: Klucel (hydroxypropylcellulose) (HPC)): 109 % of control

O=[N+]([O-])/C=C\c1ccc2c(c1)OCO2
T/C (dose: 22.0 mg/kg/injection, schedule: Q01DX009 (ip), vehicle: Klucel (hydroxypropylcellulose) (HPC)): 96 % of control
T/C (dose: 33.0 mg/kg/injection, schedule: Q01DX009 (ip), vehicle: Klucel (hydroxypropylcellulose) (HPC)): 108 % of control
T/C [15]: 96 % of control
T/C (dose: 75.0 mg/kg/injection, schedule: Q01DX009 (ip), vehicle: Klucel (hydroxypropylcellulose) (HPC)): 100 % of control

NC(=O)OCCCc1ccccc1
T/C [13]: 100 % of control
T/C [16]: 94 % of control
T/C [15]: 100 % of control
T/C [14]: 107 % of control

O=C/C(Br)=C\c1ccccc1
T/C (dose: 25.0 mg/kg/injection, schedule: Q04DX003 (ip), vehicle: Klucel (hydroxypropylcellulose) (HPC)): 96 % of control
T/C (dose: 50.0 mg/kg/injection, schedule: Q04DX003 (ip), vehicle: Klucel (hydroxypropylcellulose) (HPC)): 103 % of control
T/C (dose: 100.0 mg/kg/injection, schedule: Q04DX003 (ip), vehicle: Klucel (hydroxypropylcellulose) (HPC)): 96 % of control

Cn1c(=O)c2[nH]c(Cc3ccsc3)nc2n(C)c1=O
T/C [13]: 104 % of control
T/C [16]: 107 % of control
T/C [15]: 96 % of control

C[n+]1ccc(Nc2ccc(NC(=O)c3ccc(Nc4cc[n+](C)c5ccc(N)cc45)cc3)cc2)cc1
T/C (dose: 0.5 mg/kg/injection, schedule: Q01DX009 (ip), vehicle: Klucel (hydroxypropylcellulose) (HPC)): 105 % of control
T/C (dose: 1.0 mg/kg/injection, schedule: Q01DX009 (ip), vehicle: Klucel (hydroxypropylcellulose) (HPC)): 98 % of control and 101 % of control
T/C (dose: 1.0 mg/kg/injection, schedule: Q02DX009 (ip), vehicle: Klucel (hydroxypropylcellulose) (HPC)): 100 % of control and 116 % of control
T/C (dose: 2.0 mg/kg/injection, schedule: Q01DX009 (ip), vehicle: Klucel (hydroxypropylcellulose) (HPC)): 105 % of control and 108 % of control and 111 % of control
T/C (dose: 2.0 mg/kg/injection, schedule: Q02DX009 (ip), vehicle: Klucel (hydroxypropylcellulose) (HPC)): 106 % of control and 112 % of control
T/C (dose: 4.0 mg/kg/injection, schedule: Q01DX009 (ip), vehicle: Klucel (hydroxypropylcellulose) (HPC)): 103 % of control and 111 % of control and 120 % of control
T/C (dose: 4.0 mg/kg/injection, schedule: Q02DX009 (ip), vehicle: Klucel (hydroxypropylcellulose) (HPC)): 109 % of control and 112 % of control
T/C (dose: 8.0 mg/kg/injection, schedule: Q01DX009 (ip), vehicle: Klucel (hydroxypropylcellulose) (HPC)): 109 % of control and 123 % of control and 124 % of control
T/C (dose: 8.0 mg/kg/injection, schedule: Q02DX009 (ip), vehicle: Klucel (hydroxypropylcellulose) (HPC)): 107 % of control and 118 % of control
T/C (dose: 16.0 mg/kg/injection, schedule: Q02DX009 (ip), vehicle: Klucel (hydroxypropylcellulose) (HPC)): 98 % of control and 110 % of control

CC(C)C(NC(=O)C(NC(=O)C(CCCN=C(N)N)NC(=O)C(N)CCCCN)C(C)C)C(N)=O (stereo not given) (H-KRVV-NH2; configuration not given here)
T/C (dose: 25.0 mg/kg/injection, schedule: Q01DX009 (ip), vehicle: water): 97 % of control
T/C (dose: 50.0 mg/kg/injection, schedule: Q01DX009 (ip), vehicle: water): 96 % of control
T/C (dose: 100.0 mg/kg/injection, schedule: Q01DX009 (ip), vehicle: water): 96 % of control
T/C (dose: 200.0 mg/kg/injection, schedule: Q01DX009 (ip), vehicle: water): 99 % of control

CCN(CC)CCCC#CCN1CCOCC1
T/C [1]: 115 % of control
T/C [2]: 109 % of control
T/C [3]: 100 % of control

CC(=O)OCC(=O)[C@@]12OC(C)(C)O[C@@H]1C[C@H]1[C@@H]3CC(C=O)=C4C=C(OCCCl)CC[C@]4(C)[C@@]3(F)[C@@H](O)C[C@@]12C
T/C [17]: 111 % of control
T/C [10]: 112 % of control
T/C [6]: 115 % of control
T/C [7]: 110 % of control
T/C [8]: 109 % of control

O=C(CNC(=O)Nc1ccc(C2=NCCN2)cc1)Nc1ccc(C2=NCCN2)cc1
T/C (dose: 6.25 mg/kg/injection, schedule: Q01DX009 (ip), vehicle: saline with Tween-80): 97 % of control
T/C [18]: 100 % of control
T/C [19]: 97 % of control

O=S(=O)(NN=C(c1ccccc1)c1ccccc1)c1ccccc1
T/C [16]: 86 % of control
T/C [15]: 91 % of control

C[C@]12CC[C@H](OC(=O)Cc3ccc(N(CCCl)CCCl)cc3)CC1=CC[C@@H]1[C@@H]2CC[C@]2(C)C(=O)CC[C@@H]12
T/C [11]: 92 % of control
T/C [6]: 115 % of control
T/C [12]: 97 % of control
T/C [7]: 105 % of control
T/C [8]: 105 % of control

CC1(C)COCN1COCCOCN1COCC1(C)C
T/C (dose: 6.25 mg/kg/injection, schedule: Q01DX009 (ip), vehicle: saline): 102 % of control
T/C (dose: 12.5 mg/kg/injection, schedule: Q01DX009 (ip), vehicle: saline): 103 % of control
T/C [5]: 113 % of control
T/C [1]: 118 % of control
T/C [2]: 120 % of control

O=C(O)c1c(Cl)cccc1Cl
T/C [18]: 105 % of control
T/C [19]: 95 % of control
T/C [17]: 105 % of control
T/C [10]: 97 % of control
